# In PubChem BioAssay AID220 (DTP/NCI, 2004):
# Values joined by “and” are separate entries in the source; they are usually repeats but may differ in a detail not shown here. Equal entries are not always repeated. Inconclusive results are not listed.
# Test system: CD8F1 mice, subcutaneous mammary adenocarcinoma, T/C%
# Test: NCI In Vivo Anticancer Drug Screen. Data for tumor model Mammary Adenocarcinoma CD8F1 (subcutaneous) in CD8F1
# Conditions: higher = larger tumour
# Method in brief: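 Antitumor activity is assessed in transplantable-tumor mice by comparing the treated group with a vehicle-treated control group. Survival or tumor size serves as the measure, reported as T divided by C.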
# [1] = endpoint: median tumor weight (est.), dose: 25.0 mg/kg/injection, schedule: Q07DX005 (ip), vehicle: saline
# [2] = endpoint: median tumor weight (est.), dose: 50.0 mg/kg/injection, schedule: Q07DX005 (ip), vehicle: saline
# [3] = endpoint: median tumor weight (est.), dose: 3.12 mg/kg/injection, schedule: Q07DX005 (ip), vehicle: saline
smiles,measurement,setting,value
NC(=S)N/N=C/c1ccc(O)cn1,T/C,"endpoint: mean tumor weight, dose: 12.5 mg/kg/injection, schedule: Q07DX005 (ip), vehicle: saline with Tween-80",101 % of control
same,T/C,"endpoint: mean tumor weight, dose: 25.0 mg/kg/injection, schedule: Q07DX005 (ip), vehicle: saline with Tween-80",75 % of control
same,T/C,"endpoint: mean tumor weight, dose: 50.0 mg/kg/injection, schedule: Q07DX005 (ip), vehicle: saline with Tween-80",58 % of control
same,T/C,"endpoint: mean tumor weight, dose: 100.0 mg/kg/injection, schedule: Q07DX005 (ip), vehicle: saline with Tween-80",49 % of control
same,T/C,"endpoint: mean tumor weight, dose: 200.0 mg/kg/injection, schedule: Q07DX005 (ip), vehicle: saline with Tween-80",63 % of control
same,T/C,"endpoint: median tumor weight (est.), dose: 12.5 mg/kg/injection, schedule: Q07DX005 (ip), vehicle: saline with Tween-80",106 % of control
same,T/C,[1],59 % of control
same,T/C,"endpoint: median tumor weight (est.), dose: 50.0 mg/kg/injection, schedule: Q07DX005 (ip), vehicle: saline with Tween-80",85 % of control
same,T/C,[2],76 % of control
same,T/C,"endpoint: median tumor weight (est.), dose: 100.0 mg/kg/injection, schedule: Q07DX005 (ip), vehicle: saline with Tween-80",124 % of control
same,T/C,"endpoint: median tumor weight (est.), dose: 100.0 mg/kg/injection, schedule: Q07DX005 (ip), vehicle: saline",105 % of control
same,T/C,"endpoint: median tumor weight (est.), dose: 200.0 mg/kg/injection, schedule: Q07DX005 (ip), vehicle: saline with Tween-80",60 % of control
same,T/C,"endpoint: median tumor weight (est.), dose: 200.0 mg/kg/injection, schedule: Q07DX005 (ip), vehicle: saline",64 % of control
same,T/C,"endpoint: median tumor weight (est.), dose: 400.0 mg/kg/injection, schedule: Q07DX005 (ip), vehicle: saline with Tween-80",52 % of control
same,T/C,"endpoint: median tumor weight (est.), dose: 400.0 mg/kg/injection, schedule: Q07DX005 (ip), vehicle: saline",44 % of control
same,T/C,"endpoint: median tumor weight (est.), dose: 800.0 mg/kg/injection, schedule: Q07DX005 (ip), vehicle: saline",2 % of control
CC(=O)OCC1OC([S-])C(OC(C)=O)C(OC(C)=O)C1OC(C)=O.CC[PH+](CC)CC.CC[PH+](CC)CC.[Au].[Au] (configuration not stated),T/C,"endpoint: median tumor weight change, dose: 6.25 mg/kg/injection, schedule: Q01DX001 (ip), vehicle: Klucel (hydroxypropylcellulose) (HPC)",63 % of control
same,T/C,"endpoint: median tumor weight change, dose: 12.5 mg/kg/injection, schedule: Q01DX001 (ip), vehicle: Klucel (hydroxypropylcellulose) (HPC)",109 % of control
CNc1n[n+](-c2ccccc2)no1,T/C,"endpoint: mean tumor weight, dose: 3.12 mg/kg/injection, schedule: Q07DX006 (ip), vehicle: saline",90 % of control
same,T/C,"endpoint: mean tumor weight, dose: 12.5 mg/kg/injection, schedule: Q07DX006 (ip), vehicle: saline",27 % of control
same,T/C,"endpoint: mean tumor weight, dose: 25.0 mg/kg/injection, schedule: Q07DX006 (ip), vehicle: saline",81 % of control
same,T/C,"endpoint: mean tumor weight, dose: 50.0 mg/kg/injection, schedule: Q07DX006 (ip), vehicle: saline",2 % of control
same,T/C,[3],157 % of control
same,T/C,[2],50 % of control and 60 % of control
COc1cccc2c1C(=O)c1c(O)c3c(c(O)c1C2=O)C[C@@](O)(/C(C)=N/NC(=O)c1cccc([N+](=O)[O-])c1)C[C@@H]3OC1CC(N)C(O)C(C)O1 (some centres not stated),T/C,"endpoint: mean tumor weight, dose: 4.0 mg/kg/injection, schedule: Q07DX004 (ip), vehicle: saline",98 % of control
same,T/C,"endpoint: mean tumor weight, dose: 8.0 mg/kg/injection, schedule: Q07DX004 (ip), vehicle: saline",51 % of control
same,T/C,"endpoint: mean tumor weight, dose: 16.0 mg/kg/injection, schedule: Q07DX004 (ip), vehicle: saline",94 % of control
same,T/C,"endpoint: mean tumor weight, dose: 32.0 mg/kg/injection, schedule: Q07DX004 (ip), vehicle: saline",1 % of control
same,T/C,"endpoint: median tumor weight (est.), dose: 4.0 mg/kg/injection, schedule: Q07DX005 (ip), vehicle: saline",93 % of control
same,T/C,"endpoint: median tumor weight (est.), dose: 8.0 mg/kg/injection, schedule: Q07DX005 (ip), vehicle: saline",41 % of control
same,T/C,"endpoint: median tumor weight (est.), dose: 16.0 mg/kg/injection, schedule: Q07DX005 (ip), vehicle: saline",5 % of control
NC(=O)c1ccc[n+](Cc2c(Cl)cccc2Cl)c1,T/C,"endpoint: median tumor weight (est.), dose: 3.0 mg/kg/injection, schedule: Q07DX005 (ip), vehicle: saline",171 % of control
same,T/C,"endpoint: median tumor weight (est.), dose: 6.0 mg/kg/injection, schedule: Q07DX005 (ip), vehicle: saline",102 % of control
same,T/C,"endpoint: median tumor weight (est.), dose: 12.0 mg/kg/injection, schedule: Q07DX005 (ip), vehicle: saline",211 % of control
same,T/C,"endpoint: median tumor weight (est.), dose: 48.0 mg/kg/injection, schedule: Q07DX005 (ip), vehicle: saline",186 % of control
Cc1cc2nc3c(=O)[nH]c(=O)nc-3n(CC(O)C(O)C(O)C(O)CO)c2cc1C (configuration not stated),T/C,"endpoint: median tumor weight (est.), dose: 200.0 mg/kg/injection, schedule: Q07DX005 (ip), vehicle: suspension in saline",87 % of control and 100 % of control
same,T/C,"endpoint: median tumor weight (est.), dose: 400.0 mg/kg/injection, schedule: Q07DX005 (ip), vehicle: suspension in saline",58 % of control and 64 % of control
O=c1[nH]c(=O)n(C2OC(CO)C(O)C2O)cc1F (configuration not stated),T/C,"endpoint: median tumor weight (est.), dose: 1.56 mg/kg/injection, schedule: Q07DX005 (ip), vehicle: saline",79 % of control
same,T/C,[3],103 % of control
same,T/C,"endpoint: median tumor weight (est.), dose: 6.25 mg/kg/injection, schedule: Q07DX005 (ip), vehicle: saline",75 % of control
same,T/C,"endpoint: median tumor weight (est.), dose: 12.5 mg/kg/injection, schedule: Q07DX005 (ip), vehicle: saline",45 % of control
same,T/C,[1],11 % of control
